In patent publication US6162799A, “Pesticidal compounds” (BTG International Limited, priority 1995, dated 2000):
≈ marks a conversion by molar mass, not a printed value.

What was measured:
Musca domestica = assay: Topical test on houseflies (MD); assay type: in vivo; conditions: for MD (LD50): houseflies, topical on thorax, kill assessed 24 and 48 h
Method: (§1) Pesticidal activity was assessed against houseflies, mustard beetles, mites and whitefly using the following methods.
Houseflies (MD) (Musca domestica)
Female flies were treated on the thorax with a one microliter drop of test compound dissolved in acetone. Two replicates of 15 flies were used at each dose rate and 6 dose rates were used per compound under test. After treatment, the flies were maintained at a temperature of 20°±1° C. and kill was assessed 24 and 48 hours after treatment. LD50 values were calculated in micrograms of test compound per fly (see Sawicki et al., Bulletin of the World Health Organisation, 35, 893 (1966) and Sawicki et al., Entomologia and Exp. Appli 10, 253, (1967).
(§2) The values given are LD50 (μg/insect) or LC50 (ppm solution of test compound) unless otherwise specified.

Tetranychus urticae = assay: Immersion test on mites (TU), susceptible strain GSS; assay type: in vivo; conditions: 72 h, read-out: TU (GSS) (LC50)
Method: as §1
Mites (TU) (Tetranychus urticae)
25 adult female mites were immersed in 35 μl of a solution of the test compound in a 1:4 acetone-water mixture for 30 seconds. The treated insects were maintained at 21°±2° C. and kill was assessed 72 hours after treatment. […] Three replicates of 25 mites each were used at each dose rate and 5 or 6 dose rates were used per compound under test. LC50 values were calculated in ppm of the solution of the test compound per insect. The test was carried out using a susceptible strain of mites (GSS) supplied by Schering, AG, Berlin.
as §2

Bemisia tabaci = assay: Film/vial test on whitefly (BT), susceptible strain SUD-S; assay type: in vivo; conditions: 48 h, read-out: BT (SUD-S) (LC50)
Method: as §1
Whitefly (BT) (Bemisia tabaci)
Acetone solutions (0.100 ml) of the test compounds were placed in 10 ml glass vials and evaporated with rotation to deposit a film of the compound. Thirty adult whiteflies were placed inside the vial, then after 60 minutes, the treated insects were transferred onto untreated cotton leaf discs which were kept moist on a bed of agar gel. The temperature was maintained at 25° C. and mortality assessed after 48 hours. Three replicates were used at each of 5 to 7 dose levels per compound. LC50 values were calculated by using a computer software package ("Polo-PC" available from LeOra Software, Berkeley, Calif.). (See M. R. Cahill and B. Hackett in Proceedings Brighton Crop Protection Conference, 1992). The test was carried out using a susceptible strain of whitefly (SUD-S) which was collected in Sudan in 1978 from cotton.
as §2

Myzus persicae [1] = assay: Aphicidal activity, topical application; assay type: in vivo; conditions: 100 ppm, 72 h
Method: (§3) Activity against resistant (R) and susceptible (S) strains of aphid (Myzus persicae) and Aphis gossypiae was assessed using the following two methods.
(§4) Batches of 10-15 apterous adults were removed from stock cultures and placed on leaf discs (35 mm in diameter) cut from chinese cabbage and held on an agar bed (25 mm deep) in disposable plastic containers (30 mm high). Using a Burkhard micro-applicator aphids were dosed individually with a 0.25 μm droplet of chemical diluted to the required concentration in acetone. control insects were dosed with acetone only. Mortality and other effects were scored at 24 hour intervals up to and including 72 hour post-treatment, the end-point to which the results relate.
(§5) The test was carried out using a susceptible strain of aphids (US1L) collected in the field in East Anglia, UK and an extremely resistant strain of aphids (794Jz) (R^3 esterase, sensitive ACHE) collected from glasshouses in the UK.
(§6) The values given are % mortality corrected for control data. The control comprised the test solution without active ingredient.

Myzus persicae [2] = assay: Aphicidal activity, aphid-dip; assay type: in vivo
Method: as §3
(§7) Entrapment rings of fluon were painted halfway up the inside of 4 cm lengths of glass tubing (1.5 cm diameter), and squares of insect-proof gauze were attached to one end of each tube by elastic bands. Fifteen apterous adults were then gently transferred into the tubes using a sable-hair brush, and the tube sealed with a second gauze square.
(§8) Tubes containing aphids were dipped into insecticide solutions for 10 seconds, dried on blotting paper, and then inverted and tapped to cause treated aphids to fall to the unimmersed end of each tube. Handling mortality (usually zero or very slight) was scored after 1 hour, when aphids were transferred onto chinese cabbage leaf-discs (35 mm diameter) on an agar bed (25 mm in depth) in disposible plastic containers (30 mm high) and confined by applying a ring of fluon to the exposed lip of the container. Containers were stored upright, without lids, in a constant environment facility maintained at 25° C. under continuous room lighting. Mortality was assessed at 24, 48 and 72 hours. Two replicates of 15 aphids each were used at each dose rate and 5 or 6 dose rates were used per compound under test.
as §5, §6

Aphis gossypiae = assay: Aphicidal activity, aphid-dip; assay type: in vivo; conditions: strain 81-171B, read-out: Aphid-dip result, % kill A.G. 81-171B
Method: as §3, §7, §8, §6

Aspergillus niger = assay type: cell-based; conditions: A. niger
Rhizoctonia solani = assay type: cell-based; conditions: R. solani
Phaedon cochleariae Fab = assay: Topical test on mustard beetles (PC); assay type: in vivo; conditions: for PC (LD50): mustard beetles, topical, 48 h
Method: as §1
Mustard beetles (PC) (Phaedon cochleariae Fab)
A one microliter drop of an acetone solution of the test compound was applied ventrally to adult mustard beetles using a micro drop applicator. The treated insects were maintained for 48 hours after which time kill was assessed. Two replicates each of 20 to 25 mustard beetles were used at each dose level and 5 dose levels were treated comparably. LD50 values were calculated as for houseflies.
as §2

acarids and fungi = conditions: cited from earlier work
Tetranychus = conditions: Tabelle A of EP 0300218 A1; cited from earlier work
Myzus = assay: Aphicidal activity of comparative compounds (topical or dip not stated); assay type: in vivo; conditions: prior art t-butyl compound; in the tests set out above; concentration not given
Method: as §3
as §4, with “relate. […]” for “relate.”
as §8, with “Containers were stored upright, without lids, in a constant environment facility maintained at 25° C. under continuous room lighting.” left out, “Two replicates of 15 aphids each were used at each dose rate and 5 or 6 dose rates were used per compound under test.” left out

[3] = test system: Pyricularia oryzae (=Magnaporthe grisea); assay type: cell-based; conditions: P. oryzae, 100 mg 1^-1, 7 days
[4] = susceptible strain USIL, read-out: Topical aphid results, % kill M.P. USIL
[5] = susceptible strain USIL, read-out: Aphid-dip result, % kill M.P. USIL
[6] = resistant strain 794JZ, read-out: Aphid-dip result, % kill M.P. 794JZ
[7] = prior art t-butyl compound, tested by the present inventors
[8] = 100 mg 1^-1, 4 days at 20-25° C.

C[Si](C)(C)CCCCCC1=C(O)C(=O)c2ccccc2C1=O [Example 3, 2-hydroxy-3(5'-trimethylsilylpentyl)-1,4-naphthoquinone]
MD (LD50) (Musca domestica): 1.3 μg/insect
LC50 (Tetranychus urticae): 2.8 µg/mL (≈ 8.85 µM)
LC50 (Bemisia tabaci): 6.8 µg/mL (≈ 21.5 µM)
mortality at 100 ppm (Myzus persicae [1]; [4]): 100%
mortality at 100 ppm (Myzus persicae [2]; [5]): 100%
mortality at 100 ppm (Aphis gossypiae): 100%

C[Si](C)(C)CCCCCCC1=C(O)C(=O)c2ccccc2C1=O [Example 9, 2-Hydroxy-3(6'-trimethylsilylhexyl)-1,4-naphthoquinone]
MD (LD50) (Musca domestica): 1.8 μg/insect
LC50 (Tetranychus urticae): 4.5 µg/mL (≈ 13.6 µM)
mortality at 100 ppm (Myzus persicae [1]; [4]): 100%
mortality at 100 ppm (Myzus persicae [2]; [5]): 100%
mortality at 100 ppm (Aphis gossypiae): 71%

CCCN(CCOc1c(Cl)cc(Cl)cc1Cl)C(=O)n1ccnc1 [Prochloraz, prochloraz, reference compound]
Activity at 1 mg 1^-1 (% inhibition of growth in colony diameter) (Aspergillus niger; 1 mg 1^-1): 97.8%

COC(=O)Nc1nc2ccccc2[nH]1 [Carbendazim, carbendazim]
Activity at 1 mg 1^-1 (% inhibition of growth in colony diameter) (Rhizoctonia solani; 1 mg 1^-1): 3.3%
Activity at 5 mg 1^-1 (% inhibition of growth in colony diameter) (Rhizoctonia solani; 5 mg 1^-1): 82.4%

C[Si](C)(C)CCC1=C(OC(=O)c2ccccc2)C(=O)c2ccccc2C1=O [Example 1, 2-benzoyloxy-3-(2'-trimethylsilylethyl)-1,4-naphthoquinone]
MD (LD50) (Musca domestica): > 20 μg/insect
PC (LD50) (Phaedon cochleariae Fab): > 20 μg/insect
LC50 (Tetranychus urticae): 110 µg/mL (≈ 291 µM)

C[Si](C)(C)CCCCCCCCCC1=C(O)C(=O)c2ccccc2C1=O [Example 12, 2-hydroxy-3-(9-trimethylsilylnonyl)-1,4-naphthoquinone]
MD (LD50) (Musca domestica): 2.8 μg/insect
PC (LD50) (Phaedon cochleariae Fab): 0.13 μg/insect
LC50 (Tetranychus urticae): 0.9 µg/mL (≈ 2.42 µM)
LC50 (Bemisia tabaci): 8.6 µg/mL (≈ 23.1 µM)
mortality at 100 ppm (Myzus persicae [1]; [4]): 89%
mortality at 100 ppm (Myzus persicae [2]; [6]): 61%
mortality at 100 ppm (Myzus persicae [2]; [5]): 100%
mortality at 100 ppm (Aphis gossypiae): 93%

C[Si](C)(C)C1CCC(C2=C(O)C(=O)c3ccccc3C2=O)CC1 (centres unmarked) [compound of Example 5 (DE 3801743 A1)]
pesticidal activity relative to other disclosed compounds (acarids and fungi; DE 3801743 A1): not the most pesticidally active compound
acaricidal and fungicidal activity (acarids and fungi; data in DE 3801743 A1): some acaricidal and fungicidal activity
activity against Tetranychus relative to tertiary butyl compound (Tetranychus): less than the corresponding tertiary butyl compound

CC(C)(C)C1CCC(C2=C(O)C(=O)c3ccccc3C2=O)CC1 (centres unmarked) [t-butyl compoud, reference compound]
LD50 against Musca (Musca domestica; [7]): 16 μg/insect
LD50 against Phaedon (Phaedon cochleariae Fab; [7]): 0.53 μg/insect
kill against Myzus (Myzus): 19%

C[Si](C)(C)CCCCCCCCCCC1=C(O)C(=O)c2ccccc2C1=O [Example 13]
MD (LD50) (Musca domestica): 9.9 μg/insect
LC50 (Tetranychus urticae): 2.2 µg/mL (≈ 5.69 µM)
mortality at 100 ppm (Myzus persicae [1]; [4]): 90%
mortality at 100 ppm (Myzus persicae [2]; [5]): 90%
mortality at 100 ppm (Aphis gossypiae): 83%

C[Si](C)(C)CCCC1=C(O)C(=O)c2ccccc2C1=O [Example 7]
MD (LD50) (Musca domestica): 4.4 μg/insect
LC50 (Tetranychus urticae): 6.4 µg/mL (≈ 22.2 µM)
mortality at 100 ppm (Myzus persicae [1]; [4]): 45%
mortality at 100 ppm (Myzus persicae [2]; [5]): 90%
mortality at 100 ppm (Aphis gossypiae): 57%

C[Si](C)(C)CCCCCCCC1=C(O)C(=O)c2ccccc2C1=O [Example 10]
MD (LD50) (Musca domestica): 1.7 μg/insect
LC50 (Tetranychus urticae): 0.31 µg/mL (≈ 0.9 µM)
LC50 (Bemisia tabaci): 8.2 µg/mL (≈ 23.8 µM)
mortality at 100 ppm (Myzus persicae [1]; [4]): 100%
mortality at 100 ppm (Myzus persicae [2]; [5]): 100%
mortality at 100 ppm (Aphis gossypiae): 100%

C[Si](C)(C)CCCCCCCCC1=C(O)C(=O)c2ccccc2C1=O [Example 11]
MD (LD50) (Musca domestica): 2.3 μg/insect
LC50 (Tetranychus urticae): 0.51 µg/mL (≈ 1.42 µM)
LC50 (Bemisia tabaci): 14.6 µg/mL (≈ 40.7 µM)
mortality at 100 ppm (Myzus persicae [1]; resistant strain 794JZ, read-out: Topical aphid results, % kill M.P. 794JZ): 95%
mortality at 100 ppm (Myzus persicae [1]; [4]): 100%
mortality at 100 ppm (Myzus persicae [2]; [5]): 100%
mortality at 100 ppm (Aphis gossypiae): 100%

C[Si](C)(C)CCC1=C(O)C(=O)c2ccccc2C1=O [Example 2, 2-hydroxy-3-(2'-trimethylsilylethyl)-1,4-naphthoquinone]
MD (LD50) (Musca domestica): 0.69 μg/insect
PC (LD50) (Phaedon cochleariae Fab): 0.45 μg/insect
LC50 (Tetranychus urticae): 38 µg/mL (≈ 138 µM)
LC50 (Bemisia tabaci): 2.6 µg/mL (≈ 9.48 µM)
mortality at 100 ppm (Myzus persicae [1]; [4]): 45%
mortality at 100 ppm (Myzus persicae [2]; [6]): 54%
mortality at 100 ppm (Myzus persicae [2]; [5]): 77%
mortality at 100 ppm (Aphis gossypiae): 63%
Activity at 100 mg 1^-1 (% inhibition of growth in colony diameter) (Aspergillus niger; [8]): 18%
Activity at 100 mg 1^-1 (% inhibition of growth in colony diameter) [3]: 67%
Activity at 100 mg 1^-1 (% inhibition of growth in colony diameter) (Rhizoctonia solani; [8]): 35%

COC1(OC)C(O)=C(CC[Si](C)(C)C)C(=O)c2ccccc21 [Example 5, 2-hydroxy-3-(2'-trimethylsilylethyl)-1,4-naphthoquinone, 1-dimethyl acetal]
MD (LD50) (Musca domestica): > 20 μg/insect
PC (LD50) (Phaedon cochleariae Fab): ~20 μg/insect
LC50 (Tetranychus urticae): 41 µg/mL (≈ 128 µM)
